# Target: T1, Pq3-O-UGT2 (Panax quinquefolius, UniProt A0A0M4ME80)
# T1 construct: pET-28a, C-terminal TEV site and 6xHis tag, E. coli Rosetta (DE3); Ni-NTA, HiTrap Q, Mono Q, Superdex 200; monomer; domains a.a; 1-442
# T1 sequence (A0A0M4ME80 1-442): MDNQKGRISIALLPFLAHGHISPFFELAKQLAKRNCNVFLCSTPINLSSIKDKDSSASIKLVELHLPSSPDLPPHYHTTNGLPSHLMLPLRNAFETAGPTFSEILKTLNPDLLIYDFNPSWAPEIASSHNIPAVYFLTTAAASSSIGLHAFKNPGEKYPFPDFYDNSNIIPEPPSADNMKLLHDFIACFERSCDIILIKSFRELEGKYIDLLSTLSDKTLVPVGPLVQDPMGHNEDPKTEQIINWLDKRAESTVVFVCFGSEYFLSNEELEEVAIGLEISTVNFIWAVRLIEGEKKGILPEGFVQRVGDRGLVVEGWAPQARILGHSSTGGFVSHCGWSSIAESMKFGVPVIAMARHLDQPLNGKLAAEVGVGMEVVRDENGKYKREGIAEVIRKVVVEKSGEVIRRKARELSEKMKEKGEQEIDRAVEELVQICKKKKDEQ
# Assay: X-ray crystallography, co-crystal, […] Å
# Conditions: acceptor-binding pocket in N-terminal domain
smiles,measurement,value
"CC(C)=CCC[C@](C)(O)[C@H]1CC[C@]2(C)[C@@H]1[C@H](O)C[C@@H]1[C@@]3(C)CC[C@H](O[C@@H]4O[C@H](CO)[C@@H](O)[C@H](O)[C@H]4O)C(C)(C)[C@@H]3CC[C@]12C [Rh2, Ginsenoside Rh2]","X-ray crystallography, co-crystal, 3.5 Å",we solved crystal structures of apo Pq3‐O‐UGT2 and its complex with Rh2
